Assay results: patent US20240059689A1, “PURINE DERIVATIVES AS ANTICANCER AGENTS” (Tango Therapeutics, Inc., priority 2021, published 2024)

How the values were obtained:
[1] = tested on: monoubiquitinated PCNA; test: AlphaLISA assay measuring monoubiquitinated PCNA in MDA-MB-436; assay type: cell-based; details: Homo sapiens, MDA-MB-436, monoubiquitinated PCNA, read-out: Alpha Lisa IC50
Description: Table 1 also indicates IC50 values for exemplary compounds in an AlphaLISA assay measuring monoubiquitinated PCNA in a BRCA1 mutant cell line (MDA-MB-436; column 7).

[2] = tested on: MDA-MB-436; test: Viability assay, BRCA1 mutant cell line MDA-MB-436; assay type: cell-based; details: Homo sapiens, MDA-MB-436, viability, BRCA1 mutant MDA-MB-436; read-out: MDA-MB-436 rel IC50
Description: (§1) Table 1 also indicates IC50 values in a viability assay for a non-isogenic pair of BRCA1 mutant (column 5-MDA-MB-436) and BRCA1 WT (column 6—HCC1954) cell lines. These values indicate the effect of treatment with compound on cell survival.

[3] = target: USP1-UAF1 (Homo sapiens, UniProt O94782); test: Ubiquitin Rhodamine assay of USP1-UAF1 activity; assay type: biochemical
Description: Certain compounds of the disclosure were assessed for USP1-UAF1 activity in a Ubiquitin Rhodamine assay as described in Biology Example 1.

[4] = tested on: HCC1954; test: Viability assay, BRCA1 WT cell line HCC1954; assay type: cell-based; details: Homo sapiens, HCC1954, viability, read-out: HCC1954 rel IC50
Description: as §1

Chain of USP1-UAF1 (O94782 whole entry): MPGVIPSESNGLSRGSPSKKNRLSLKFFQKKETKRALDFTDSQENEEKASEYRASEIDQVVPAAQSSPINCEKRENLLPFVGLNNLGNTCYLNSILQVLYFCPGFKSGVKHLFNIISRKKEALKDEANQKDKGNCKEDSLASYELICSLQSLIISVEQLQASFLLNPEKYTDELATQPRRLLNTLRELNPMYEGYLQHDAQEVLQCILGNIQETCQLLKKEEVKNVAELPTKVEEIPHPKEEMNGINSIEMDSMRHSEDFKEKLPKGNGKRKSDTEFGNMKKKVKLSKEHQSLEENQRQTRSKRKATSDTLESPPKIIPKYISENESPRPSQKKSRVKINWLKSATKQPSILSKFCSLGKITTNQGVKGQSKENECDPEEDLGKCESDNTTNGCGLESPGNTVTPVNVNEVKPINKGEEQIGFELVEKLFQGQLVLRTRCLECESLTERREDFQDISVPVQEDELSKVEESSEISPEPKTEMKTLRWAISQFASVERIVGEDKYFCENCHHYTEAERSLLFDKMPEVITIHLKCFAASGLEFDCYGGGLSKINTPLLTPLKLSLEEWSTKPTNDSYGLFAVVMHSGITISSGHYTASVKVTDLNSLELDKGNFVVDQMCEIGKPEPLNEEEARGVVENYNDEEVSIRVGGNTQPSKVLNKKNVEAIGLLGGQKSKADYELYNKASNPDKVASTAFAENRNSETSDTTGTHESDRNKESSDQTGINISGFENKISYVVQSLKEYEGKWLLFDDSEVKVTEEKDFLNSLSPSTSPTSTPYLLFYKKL
Chain of USP1-UAF1 (Q8TAF3 whole entry partner): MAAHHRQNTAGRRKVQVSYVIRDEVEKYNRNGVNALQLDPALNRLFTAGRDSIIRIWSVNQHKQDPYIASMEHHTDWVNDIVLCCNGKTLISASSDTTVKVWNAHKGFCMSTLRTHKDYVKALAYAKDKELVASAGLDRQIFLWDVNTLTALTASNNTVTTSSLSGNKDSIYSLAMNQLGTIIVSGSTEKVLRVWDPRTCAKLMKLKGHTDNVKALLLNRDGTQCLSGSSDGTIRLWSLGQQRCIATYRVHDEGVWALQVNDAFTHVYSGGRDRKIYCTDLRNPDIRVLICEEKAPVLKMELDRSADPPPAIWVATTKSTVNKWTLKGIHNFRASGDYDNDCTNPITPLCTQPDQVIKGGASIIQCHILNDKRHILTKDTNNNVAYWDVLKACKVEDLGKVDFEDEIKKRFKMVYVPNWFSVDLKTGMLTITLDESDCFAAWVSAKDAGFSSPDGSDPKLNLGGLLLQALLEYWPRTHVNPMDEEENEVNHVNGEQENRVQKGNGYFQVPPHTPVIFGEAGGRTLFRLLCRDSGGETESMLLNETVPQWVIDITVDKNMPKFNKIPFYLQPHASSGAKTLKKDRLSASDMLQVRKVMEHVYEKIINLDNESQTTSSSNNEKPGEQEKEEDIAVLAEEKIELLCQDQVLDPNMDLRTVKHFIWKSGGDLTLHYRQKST

IC50 [1] | IC50 [2] | IC50 [3] | IC50 [4] | Compound
100 to 250 nM | < 100 nM | < 30 nM | 0.25 to 10 µM | CCOc1cc(C(F)(F)F)nn1-c1ccc(Cn2c(=N)n(C)c3cnc(-c4ccccc4C(C)C)nc32)cc1 [Example T-032]
< 100 nM | < 100 nM | < 30 nM | 0.25 to 10 µM | Cn1cc(C(F)(F)F)nc1-c1ccc(Cn2c(=N)n(C)c3cnc(-c4ccccc4OC(F)(F)F)nc32)cc1 [Example T-033, 7-methyl-9-[[4-[1-methyl-4-(trifluoromethyl)imidazol-2-yl]phenyl]methyl]-2-[2-(trifluoromethoxy)phenyl]purin-8-imine]
250 to 10000 nM | 250 to 10000 nM | 100 to 10000 nM | ≥ 10 µM | CN(C)c1ncccc1-c1ncc2c(n1)n(Cc1ccc(-c3nc(C(F)(F)F)cn3C)cc1)c(=N)n2C [Example T-034]
250 to 10000 nM | 250 to 10000 nM | 100 to 10000 nM | ≥ 10 µM | CC(C)c1ccncc1-c1ncc2c(n1)n(Cc1ccc(-c3nc(C(F)(F)F)cn3C)cc1)c(=N)n2C [Example T-035]
< 100 nM | < 100 nM | < 30 nM | ≥ 10 µM | Cn1cc(C(F)(F)F)nc1-c1ccc(Cn2c(=N)n(C)c3cnc(-c4c(F)cccc4OC(F)F)nc32)cc1 [Example T-036, 2-[2-(difluoromethoxy)-6-fluoro-phenyl]-7-methyl-9-[[4-[1-methyl-4-(trifluoromethyl)imidazol-2-yl]phenyl]methyl]purin-8-imine]
250 to 10000 nM | 250 to 10000 nM | 100 to 10000 nM | ≥ 10 µM | COc1ncccc1-c1ncc2c(n1)n(Cc1ccc(-c3nc(C(F)(F)F)cn3C(C)C)cc1)c(=N)n2C [Example T-037]
< 100 nM | 100 to 250 nM | 30 to 100 nM | ≥ 10 µM | COc1ncnc(C(F)(F)F)c1-c1ncc2c(n1)n(Cc1ccc(-c3nc(C(F)(F)F)cn3C)cc1)c(=N)n2C [Example T-038, 2-[4-methoxy-6-(trifluoromethyl)pyrimidin-5-yl]-7-methyl-9-[[4-[1-methyl-4-(trifluoromethyl)imidazol-2-yl]phenyl]methyl]purin-8-imine]
250 to 10000 nM | 250 to 10000 nM | 30 to 100 nM | ≥ 10 µM | Cn1cc(C(F)(F)F)nc1-c1ccc(Cn2c(=N)n(C)c3cnc(-c4cc(F)ccc4OC(F)F)nc32)cc1 [Example T-039, 2-[2-(difluoromethoxy)-5-fluoro-phenyl]-7-methyl-9-[[4-[1-methyl-4-(trifluoromethyl)imidazol-2-yl]phenyl]methyl]purin-8-imine]
< 100 nM | < 100 nM | 30 to 100 nM | ≥ 10 µM | Cc1cc(-c2nc(C(F)(F)F)cn2C)ccc1Cn1c(=N)n(C)c2cnc(-c3ccccc3C(C)C)nc21 [Example T-040]
100 to 250 nM | 250 to 10000 nM | 30 to 100 nM | ≥ 10 µM | COc1ncnc(C2CC2)c1-c1ncc2c(n1)n(Cc1cc(F)c(-c3nc(C(F)(F)F)cn3C)cc1F)c(=N)n2C [Example T-044]
100 to 250 nM | 250 to 10000 nM | 30 to 100 nM | ≥ 10 µM | CC(C)c1ccccc1-c1ncc2c(n1)n(Cc1ccc(-c3nc(C(F)(F)F)cn3C)cc1Cl)c(=N)n2C [Example T-047]
250 to 10000 nM | 100 to 250 nM | 30 to 100 nM | ≥ 10 µM | Cn1cc(C(F)(F)F)nc1-c1ccc(Cn2c(=N)n(CC(F)F)c3cnc(-c4ccccc4C(F)(F)F)nc32)cc1 [Example T-049]
250 to 10000 nM | 250 to 10000 nM | 100 to 10000 nM | ≥ 10 µM | CC(C)n1cc(C(F)(F)F)nc1-c1ccc(Cn2c(=N)n(C)c3cnc(-c4cccnc4OC(F)F)nc32)cc1 [Example T-051, 2-[2-(difluoromethoxy)-3-pyridyl]-9-[[4-[1-isopropyl-4-(trifluoromethyl)imidazol-2-yl]phenyl]methyl]-7-methyl-purin-8-imine]
100 to 250 nM | 100 to 250 nM | 30 to 100 nM | 0.25 to 10 µM | COc1nsc(OC)c1-c1ncc2c(n1)n(Cc1ccc(-c3nc(C(F)(F)F)cn3C)cc1)c(=N)n2C [Example T-052]
100 to 250 nM | < 100 nM | < 30 nM | ≥ 10 µM | Cn1cc(C(F)(F)F)nc1-c1ccc(Cn2c(=N)n(C)c3cnc(-c4cccnc4OC(F)(F)F)nc32)cc1 [Example T-053, 7-methyl-9-[[4-[I-methyl-4-(trifluoromethyl)imidazol-2-yl]phenyl]methyl]-2-[2-(trifluoromethoxy)-3-pyridyl]purin-8-imine]
< 100 nM | < 100 nM | 30 to 100 nM | ≥ 10 µM | CC(C)c1ccccc1-c1ncc2c(n1)n(Cc1ccc(-c3nc(C(F)(F)F)cn3C)cc1)c(=N)n2CC(F)(F)F [Example T-054]

IC50 [1] | IC50 [2] | IC50 [3] | IC50 [4] | Compound
250 to 10000 nM | 250 to 10000 nM | 100 to 10000 nM | ≥ 10 µM | CCn1cc(C(F)(F)F)nc1-c1ccc(Cn2c(=N)n(C)c3cnc(-c4cccnc4OC)nc32)cc1 [Example T-057]
< 100 nM | < 100 nM | < 30 nM | 0.25 to 10 µM | CC(C)c1ccccc1-c1ncc2c(n1)n(Cc1ccc(-c3nc(C(F)(F)F)c(Br)n3C)cc1)c(=N)n2C [Example T-059]
250 to 10000 nM | ≥ 10000 nM | 100 to 10000 nM | ≥ 10 µM | COc1ncccc1-c1ncc2c(n1)n(Cc1ccc(-c3nc(C(F)(F)F)cn3CC(F)F)cc1)c(=N)n2C [Example T-060]
100 to 250 nM | 100 to 250 nM | < 30 nM | 0.25 to 10 µM | COn1cc(C(F)(F)F)nc1-c1ccc(Cn2c(=N)n(C)c3cnc(-c4ccccc4C(C)C)nc32)cc1 [Example T-061]
100 to 250 nM | 100 to 250 nM | 30 to 100 nM | ≥ 10 µM | CCn1cc(C(F)(F)F)nc1-c1ccc(Cn2c(=N)n(C)c3cnc(-c4ccccc4C(F)(F)F)nc32)cc1 [Example T-063, 9-(4-(1-ethyl-4-(trifluoromethyl)-1H-imidazol-2-yl)benzyl)-7-methyl-2-(2-(trifluoromethyl)phenyl)-7H-purin-8(9H)-imine]
250 to 10000 nM | 250 to 10000 nM | 100 to 10000 nM | ≥ 10 µM | Cn1cc(C(F)(F)F)nc1-c1ccc(Cn2c(=N)n(C)c3cnc(-c4cccnc4OCC(C)(C)C)nc32)cc1 [Example T-064]
100 to 250 nM | 100 to 250 nM | 30 to 100 nM | ≥ 10 µM | COc1nccc(F)c1-c1ncc2c(n1)n(Cc1ccc(-c3nc(C(F)(F)F)cn3C)cc1)c(=N)n2C [Example T-065]
250 to 10000 nM | 250 to 10000 nM | 100 to 10000 nM | ≥ 10 µM | COCCn1cc(C(F)(F)F)nc1-c1ccc(Cn2c(=N)n(C)c3cnc(-c4ccccc4C(F)(F)F)nc32)cc1 [Example T-066]
250 to 10000 nM | 250 to 10000 nM | 30 to 100 nM | ≥ 10 µM | Cn1cc(C(F)(F)F)nc1-c1ccc(Cn2c(=N)n(C)c3cnc(-c4c(Cl)cnn4C)nc32)cc1 [Example T-067]
100 to 250 nM | 100 to 250 nM | 30 to 100 nM | ≥ 10 µM | COc1ncnc(C2CC2)c1-c1ncc2c(n1)n(Cc1ccc(-c3nc(C(F)(F)F)cn3CC(F)F)cc1)c(=N)n2C [Example T-069]
250 to 10000 nM | 250 to 10000 nM | 30 to 100 nM | 0.25 to 10 µM | Cc1ccc(-c2ncc3c(n2)n(Cc2ccc(-c4nc(C(F)(F)F)cn4C)cc2)c(=N)n3C)c(C(C)C)c1 [Example T-070, 2-(2-isopropyl-4-methyl-phenyl)-7-methyl-9-[[4-[1-methyl-4-(trifluoromethyl)imidazol-2-yl]phenyl]methyl]purin-8-imine]
< 100 nM | 100 to 250 nM | 30 to 100 nM | 0.25 to 10 µM | CC(C)c1cc(C#N)ccc1-c1ncc2c(n1)n(Cc1ccc(-c3nc(C(F)(F)F)cn3C)cc1)c(=N)n2C [Example T-071, 4-[8-imino-7-methyl-9-[[4-[1-methyl-4-(trifluoromethyl)imidazol-2-yl]phenyl]methyl]purin-2-yl]-3-isopropyl-benzonitrile]
100 to 250 nM | 250 to 10000 nM | 30 to 100 nM | ≥ 10 µM | CC(C)c1ncccc1-c1ncc2c(n1)n(Cc1ccc(-c3nc(C(F)(F)F)cn3C)cc1)c(=N)n2C [Example T-076, 2-(2-isopropyl-3-pyridyl)-7-methyl-9-[[4-[1-methyl-4-(trifluoromethyl)imidazol-2-yl]phenyl]methyl]purin-8-imine]
< 100 nM | < 100 nM | < 30 nM | ≥ 10 µM | COc1ncnc(C2CC2)c1-c1ncc2c(n1)n(Cc1ccc(-n3nc(C(F)(F)F)cc3OC)cc1)c(=N)n2C [Example T-078]
100 to 250 nM | 250 to 10000 nM | 100 to 10000 nM | ≥ 10 µM | Cn1cc(C(F)(F)F)nc1-c1ccc(Cn2c(=N)n(C)c3cnc(-c4cccnc4OCC(F)(F)F)nc32)cc1 [Example T-079, 7-methyl-9-[[4-[1-methyl-4-(trifluoromethyl)imidazol-2-yl]phenyl]methyl]-2-[2-(2,2,2-trifluoroethoxy)-3-pyridyl]purin-8-imine]
< 100 nM | 100 to 250 nM | < 30 nM | ≥ 10 µM | CC(C)c1ccccc1-c1ncc2c(n1)n(Cc1ccc(-c3nc(C(F)(F)F)cn3C)cc1O)c(=N)n2C [Example T-081]
